Test results published in patent US10071112B2, “Vitamin E-nucleoside prodrugs” (EPIGENETICS PHARMA LLC, priority 2014, dated 2018).
Counter-ions that a name gives are not always drawn. Like-named read-outs stand apart in the source and are kept apart here.

Tests used:
pancreatic cancer = conditions: clinical trials, patients with pancreatic cancer; cited from earlier work
[1] = blank human plasma matrix, room temperature, at least 4 hours; cited from earlier work
MDA-MB-231 = test: In vitro cytotoxicity / growth inhibition, SRB assay, 72 hr, breast cancer cells; type: cell-based; conditions: for IC50: Table 2; for GI50: 72 hr
Description: (§1) In general, growth inhibitory effects of gemcitabine and prodrugs were evaluated in breast (MDA), lung (H460) and colon (H116) cancer cell lines by seeding the cell lines in 96-wells plates and exposing the cells to various drug concentrations for 72 hr. Standard sulforhodamine B (SRB) assay was then performed.

NCI-H460 = test: In vitro cytotoxicity / growth inhibition, SRB assay, 72 hr, non-small cell lung cancer cells; type: cell-based; conditions: for IC50: Table 2; for GI50: 72 hr
Description: as §1

HCT-116 = test: In vitro cytotoxicity / growth inhibition, SRB assay, 72 hr, colon cancer cells; type: cell-based; conditions: for IC50: Table 2, HCT-116; for GI50: 72 hr
Description: as §1

CEM WT = test: Activity in wild type leukemic CEM cells; type: cell-based; conditions: for IC50: Homo sapiens, CCRF-CEM, CEM WT (dCK wild type) cells
Description: (§2) To further confirm that tocopherol/tocotrienol-modified drugs are imported as intact molecules and then dissociate intracellularly into monophosphorylated nucleoside and carrier, i.e., tocopherol/tocotrienol, Compound 2 was tested for activity against gemcitabine in wild type (WT) leukemic CEM cells and CEM cells without deoxycytidine kinase (dCK). In the absence of dCK, gemcitabine is not phosphorylated to gemcitabine monophosphate a precursor to the therapeutically active di- and triphosphates.

CEM dCK(—) = test: Activity in CEM cells without deoxycytidine kinase; type: cell-based; conditions: for increase of IC50 from dCK WT cells to dCK (−) cells: CEM dCK(−) vs CEM WT; for IC50: Homo sapiens, CCRF-CEM, CEM dCK(—) cells
Description: as §2

[2] = Aqueous solubility determination; type: physicochemical
From the text: In addition, chromatographic purity (%) was defined as the peak area of the principal peak relative to the total integrated peak area in the HPLC chromatogram of the calibration standard. A chromatogram of the calibration standard of each test compound, along with a UV/VIS spectrum with labeled absorbance maxima, was generated.

[3] = Intrinsic clearance / metabolic stability in liver microsomes; type: in vitro ADME; conditions: human liver microsomes
Description: Metabolic stability, expressed as percent of the parent compound remaining, was calculated by comparing the peak area of the compound at the time point relative to that at time-0. The half-life (T1/2) was estimated from the slope of the initial linear range of the logarithmic curve of compound remaining (%) vs. time, assuming the first-order kinetics. The apparent intrinsic clearance (CLint, in μL/min/pmol, μL/min/mg or μL/min/Mcell) was calculated according to the following formula: CLint=[…](mg protein/μL or million cells/μL or pmol CYP isozyme/μL)

[4] = Homo sapiens, MDA-MB-231, absence of dipyridamole (control), read-out: GI50 SRB, MDA Breast
[5] = Homo sapiens, MDA-MB-231, presence of 1 μM dipyridamole, read-out: GI50 SRB, MDA Breast, dipyridamole
[6] = Homo sapiens, NCI-H460, absence of dipyridamole (control), read-out: GI50 SRB, H460 Lung
[7] = Homo sapiens, NCI-H460, presence of 1 μM dipyridamole, read-out: GI50 SRB, H460 Lung, dipyridamole
[8] = Homo sapiens, absence of dipyridamole (control), read-out: GI50 SRB, H116 Colon
[9] = Homo sapiens, presence of 1 μM dipyridamole, read-out: GI50 SRB, H116 Colon, dipyridamole

Compound: CCCCCCCC/C=C/CCCCCCCC(=O)OC[C@H]1O[C@@H](n2ccc(N)nc2=O)C(F)(F)[C@@H]1O [elaidic acid prodrug]
- survival versus gemcitabine (pancreatic cancer): did not show any difference in survival

Compound: CCCCCCCC/C=C/CCCCCCCC(=O)OC[C@H]1O[C@@H](n2cnc(N)nc2=O)[C@H](O)[C@@H]1O [5-azacytidine elaidic acid ester]
- percent of the initial amount remaining [1]: 94%

Compound: δ-tocopheryl phosphate [reference compound]
- IC50 (MDA-MB-231; MDA-MB-231): 29.6 µM
- IC50 (NCI-H460; NCI-H460): 69.7 µM
- IC50 (HCT-116): 70.6 µM

Compound: Cc1cc(OP(=O)(O)OC[C@H]2O[C@@H](n3ccc(N)nc3=O)C(F)(F)C2O)cc2c1O[C@](C)(CCC[C@H](C)CCC[C@H](C)CCCC(C)C)CC2 (stereo partly drawn) [Compound 2, D-δ-tocopheryl phosphate-5′-gemcitabine, triethylammonium salt]
- GI50 (MDA-MB-231; [4]): 17.2 µM
- GI50 (MDA-MB-231; [5]): 23.3 µM
- IC50 (MDA-MB-231; Homo sapiens, MDA-MB-231): 5.08 µM
- GI50 (NCI-H460; [6]): 2.14 µM
- GI50 (NCI-H460; [7]): 1.47 µM
- IC50 (NCI-H460; Homo sapiens, NCI-H460): 1.69 µM
- IC50 (HCT-116; Homo sapiens): 3.67 µM
- GI50 (HCT-116; [8]): 3.07 µM
- GI50 (HCT-116; [9]): 6.74 µM
- IC50 (CEM WT): 0.59 µM
- increase of IC50 from dCK WT cells to dCK (−) cells (CEM dCK(—)): 32.5 fold
- IC50 (CEM dCK(—)): 19.2 µM
- fold by which IC50 of Compound 2 was lower than gemcitabine (CEM dCK(—); dCK (−) cells): 6.5 fold
- solubility ([2]; PBS buffer, aqueous buffer, PBS (pH 7.4), read-out: aqueous solubility in PBS): > 10000 µg/mL
- solubility ([2]; simulated intestinal fluid, fassgf or other biorelevant, read-out: aqueous solubility in simulated intestinal fluid): > 200 µM
- intrinsic clearance half-life [3]: greater than 60 minutes

Compound: α-tocopheryl phosphate [reference compound]
- IC50 (MDA-MB-231; MDA-MB-231): 23.4 µM
- IC50 (NCI-H460; NCI-H460): 52.2 µM
- IC50 (HCT-116): 46.9 µM

Compound: Nc1ccn([C@@H]2O[C@H](CO)[C@@H](O)C2(F)F)c(=O)n1 [Gemcitabine, reference compound]
- GI50 (MDA-MB-231; [4]): 3.08 µM
- GI50 (MDA-MB-231; [5]): 56.8 µM
- IC50 (MDA-MB-231; Homo sapiens, MDA-MB-231): 0.11 µM
- GI50 (NCI-H460; [6]): 0.02 µM
- GI50 (NCI-H460; [7]): 0.82 µM
- IC50 (NCI-H460; Homo sapiens, NCI-H460): 0.02 µM
- IC50 (HCT-116; Homo sapiens): 0.01 µM
- GI50 (HCT-116; [8]): 0.03 µM
- GI50 (HCT-116; [9]): 2.39 µM
- IC50 (CEM WT): 0.002 µM
- fold by which IC50 of gemcitabine was lower than Compound 2 (CEM WT; dCK WT cells): 295 fold
- increase of IC50 from dCK WT cells to dCK (−) cells (CEM dCK(—)): 62,250 fold
- IC50 (CEM dCK(—)): 124 µM

Compound: Cc1c(C)c2c(c(C)c1OP(=O)(O)OC[C@H]1O[C@@H](n3ccc(N)nc3=O)C(F)(F)[C@@H]1O)CC[C@@](C)(CCC[C@H](C)CCC[C@H](C)CCCC(C)C)O2 [Compound 1, D-α-tocopheryl phosphate-5′-gemcitabine, triethylammonium salt]
- IC50 (MDA-MB-231; Homo sapiens, MDA-MB-231): 22.7 µM
- IC50 (NCI-H460; Homo sapiens, NCI-H460): 23.8 µM
- IC50 (HCT-116; Homo sapiens): 26.1 µM

Compound: CC(C)=CCC/C(C)=C/CC/C(C)=C/CCC1(C)CCc2cc(OP(=O)(O)O)c(C)c(C)c2O1 (stereo not shown) [γ-tocotrienyl phosphate, reference compound]
- IC50 (MDA-MB-231; MDA-MB-231): 26.4 µM
- IC50 (NCI-H460; NCI-H460): 69.1 µM
- IC50 (HCT-116): 55.7 µM

Compound: CC(C)=CCC/C(C)=C/CC/C(C)=C/CCC1(C)CCc2cc(OP(=O)(O)OC[C@H]3O[C@@H](n4ccc(N)nc4=O)C(F)(F)[C@@H]3O)c(C)c(C)c2O1 (stereo partly drawn) [Compound 3, D-γ-tocotrienyl phosphate-5′-gemcitabine, triethylammonium salt]
- IC50 (MDA-MB-231; MDA-MB-231): 4.9 µM
- GI50 (MDA-MB-231; absence of dipyridamole (control), read-out: GI50 SRB, MDA Breast): 30.3 µM
- GI50 (MDA-MB-231; presence of 1 μM dipyridamole, read-out: GI50 SRB, MDA Breast, dipyridamole): 27.8 µM
- IC50 (NCI-H460; NCI-H460): 4.75 µM
- GI50 (NCI-H460; absence of dipyridamole (control), read-out: GI50 SRB, H460 Lung): 7.16 µM
- GI50 (NCI-H460; presence of 1 μM dipyridamole, read-out: GI50 SRB, H460 Lung, dipyridamole): 16 µM
- IC50 (HCT-116): 4.01 µM
- GI50 (HCT-116; absence of dipyridamole (control), read-out: GI50 SRB, H116 Colon): 5.55 µM
- GI50 (HCT-116; presence of 1 μM dipyridamole, read-out: GI50 SRB, H116 Colon, dipyridamole): 12.6 µM
